Measured values taken from EP0414895A1, “OROTATE OF $g(a)-AMINO-$g(b)-PHENYL-BUTYRIC ACID” (NAUCHNO-PROIZVODSTVENNOE OBIEDINENIE "BIOLAR", priority 1989, dated 1990).
Structures can show the parent of a compound that is named as a salt.

How the values were obtained:
Format in all cases: in vivo
Mäuse [1] = assay: Swimming test at 40°C; conditions: for Schwimmzeit: 40°C
Excerpt: Der Einfluss der beanspruchten Verbindung auf die physische Toleranz der Tiere wurde nach dem Schwimmtest der Mäuse und Ratten untersucht. Die Versuche wurden in einer Wanne von […] Fläche durchgeführt. Die Tiergruppe (8 bis I0 Mäuse oder Ratten) wurde ins Wasser gebracht und es wurde die Zeit der Schwimmfähigkeit bestimmt. Die neue Verbindung und γ -Amino- β - -phenylbuttersäurehydrochlorid wurden enteral und intraperitoneal I Stunde oder 3 Stunden vor dem Schwimmbeginn eingeführt. Die Untersuchung wurde sowohl nach der einmaligen als auch nach der chronischen (innerhalb von 20 Tagen einmal täglich) Einführung der genannten Verbindungen durchgeführt. Die Versuche wurden bei 3 Temperaturen angestellt: 2°C (Tabelle I7), 25°C (Tabelle I8) und 40°C (Tabelle I9).

Ratten [2] = assay: Thresholds of emotional reactivity and aggressiveness on electric pain stimulation, rats
Mäuse [3] = assay: Natriumäthaminal intoxication, sleep duration, mice
Experimental: (§1) Ausserdem wurde die Wirkung der beanspruchten Verbindung auf die durch Natriumäthaminal erzeugte Intoxikation untersucht. Die Versuche wurden an männlichen Mäusen und Ratten in Gruppen zu 8 bis I0 Tieren angestellt. Natriumäthaminal wurde intraperitoneal in einner Dosis von I00 mg/kg I5 min nach der enteralen Verabreichung der beanspruchten Verbindung oder der Kontrollarzneimittel eingeführt. Es wurde die einmalige und chronische Einwirkung (während I2 bis I4 Tage einmal täglich) von der neuen Verbindung, γ -Amino- β - -phenylbuttersäurehydrochlorid und Pyrazetam untersucht. Es wurde die Dauer der Seitenlage - des Schlafs der Tiere bestimmt. Die Ergebnisse dieser Untersuchung sind in Tabelle 23 (für Mäuse) und 24 (für Ratten) angeführt.

Mäuse [4] = assay: Conflict situation (punished water intake); conditions: 45 to 120 min before test
Excerpt: Es wurde auch die Wirkung der erfindungsgemässen Verbindung unter Bedingungen einer Konfliktsituation an männlichen Mäusen (Gruppe aus I0 Mäusen) untersucht. Vorläufig wurde den Mäusen das Wasser für 48 Stunden entzogen, danach wurden ihnen 45 bis I20 Minuten vor dem Versuch die Verbindungen intraperitoneal eingeführt und die Tiere wurden in der Kammer untergebracht, wo sich eine Wassertränke befand. Im Augenblick der Wassereinnahme bekam es einen elektrischen Schlag, der am Zähler registriert wurde. In der Prüfkammer befand sich das Tier innerhalb von 3 Minuten. Für diese Zeit wurden die Zahl der Wassereinnahmen sowie die Lazenzperiode - die Zeit zwischen dem Unterbringen des Tiers in der Kammer und der ersten Wassereinnahme - registriert. Die durchschnittlichen Angaben sind in der Tabelle 5 angeführt.

Ratten [5] = assay: Cold stress at 2°C, rectal temperature, rats; conditions: for Rektaltemperatur nach I Stunde an der Kälte: 2°C; for Rektaltemperatur nach I Stunde: 1 h after dosing at room temperature
Experimental: Aus den in Tabellen angeführten Ergebnissen ist zu ersehen, dass die einmalige Einführung der neuen Verbindung die Schwimmdauer der Mäuse und Ratten wesentlich nicht beeinflusst. Nach der 20 Tage langen chronischen Einführung der neuen Verbindung wird die Schwimmdauer hingegen zuverlässig grösser - (Tabelle I7) um das I,5fache im kalten Wasser und um das 2,5fache bei einer Temperatur von 40°C (Tabelle I9) im Vergleich zu γ -Amino- β -phenylbuttersäurehydrochlorid. Auf diese Weise erhöht die chronische Einführung der neuen Verbindung wesentlich die physische Toleranz der Tiere. Ausserdem wurde auch die Toleranz der Tiere gegen den Kältestress bestimmt. Die Untersuchung wurde bei einer Temperatur von 2°C an Mäusen und Ratten durchgeführt, indem jedes Tier abgesondert in der Einzelkammer von I5 x 20 x 20 cm Ausmass untergebracht wurde. Es wurde die Rektaltemperatur vor der Einführung der neuen Verbindung, des γ -Amino- β - phenylbuttersäurehydrochlorids und der physiologischen Kontrollösung eine Stunde nach der Einführung bei Zimmertemperatur und nach I Stunde und 2 Stunden in der Kälte gemessen. Die Versuche wurden an einer Mäusengruppe (I0 Stück) (Tabelle 20) und an einer Rattengruppe (8 Stück) (Tabelle 2I) bei der einmaligen und chronischen Einführung innerhalb von 22 bzw. I6 Tagen einmal pro Tag angestellt.

Ratten [6] = assay: Hypoxia by subcutaneous Natriumnitroprussid, survival, rats; conditions: Natriumnitroprussid 20 mg/kg s.c.
Experimental: (§2) Die […] Hypoxie wurde durch die subkutane Einführung von Natriumnitroprussid in einer Dosis von 20 mg/kg den Gruppen von Mäusen und Ratten zu I0 Stück in der Gruppe erzeugt. Natriumnitroprussid wurde 60 min nach der Einführung der Prüfverbindungen verabreicht. Die Angaben sind in Tabelle I5 (für Mäuse) und I6 (für Ratten) angeführt.

Mäuse [7] = assay: Hypoxia by subcutaneous Natriumnitroprussid, survival, mice
Experimental: as §2

Mäuse [8] = assay: Motor and orientation activity in photoelectric actometer; conditions: counted 60 min from 10 min after dosing
Excerpt: Zur Bestimmung der sedativen Wirksamkeit wurde die motorische und Orientierungsaktivität und die motorische Fähigkeit in Versuchen an Mäusen und Ratten untersucht.
Den Versuchstieren wurden die beanspruchte Verbindung, γ -Amino- β -phenylbuttersäurehydrochlorid und Pyrazetam eingeführt. Als Kontrolle diente die physiologische Lösung (0,9%ige NaCl-Lösung). Die Untersuchungen wurden an I0 bis I2 erwachsenen Tieren (Mäuse, Ratten) durchgeführt.
Bei der Bestimmung der motorischen und Orientierungsaktivität wurde jede Maus in einer Einzelkamner des photoelektrischen Aktometers untergebracht. Die motorische und Orientierungsaktivität wurde nach der Zahl der Impulse bestimmt, die beim Berühren der Aktometerkontakte durch das Tier entstanden. Das Zählen der Im pulse wurde I0 min nach der intraperitonealen Einführung der genannten Verbindungen begonnen und dauerte innerhalb von 60 min. Die Angaben sind in der Tabelle I angeführt.

Ratten [9] = assay: Natriumäthaminal intoxication, sleep duration, rats
Experimental: as §1

Mäuse [10] = assay: Thresholds of emotional reactivity and aggressiveness on electric pain stimulation, mice
Excerpt: Es wurde auch die emotionelle Aktivität und Aggressivität der Tiere auf dem Wege der elektrischen Schmerzreizung untersucht.
In einer Kammer von 20 x 20 x 25 cm Ausmass, deren Boden - ein Metallgitter aus Stangen darstellt, wurde ein Paar Tiere untergebracht (männliche Mäuse) und es wurde der Wechselstrom durchgelassen. Die Spannung wurde dosenartig auf 5 V solange erhöht, bis der Strom das Piepsen (die Schwelle der emotionellen Reaktivität) und die Schlägerei der Tiere (die Schwelle der Aggressivität) auslöste. Jede Spannungsgrösse wurde innerhalb von 5 sec zweimal in einem Zeitabstand von 20 bis 50 Sekunden aufrechterhalten. Die Kontrolle des Benehmens der Tiere begann man I0 Minuten nach der Einführung der oben erwähnten Verbindungen. Die Angaben sind in Tabellen 3, 4 angeführt.

[11] = 50 mg/kg chronic, 14 days + Natriumäthaminal 100 mg/kg i.p.
[12] = 50 mg/kg single + Natriumäthaminal 100 mg/kg i.p.

## NCC(CC(=O)O)c1ccccc1 (stereo not drawn) [γ-Amino-β-phenylbutter-säurehydrochlorid, γ -Amino- β -phenylbuttersäurehydrochlorid, reference compound]
Mäuse [1]; 35 mg/kg chronic, 20 days
  Schwimmzeit: 58±7,2 min
Mäuse [1]; 35 mg/kg single
  Schwimmzeit: 37,8±8 min
Ratten [2]; 80,0 mg/kg
  Spannung in V, die Schwelle der Aggressivität: 44,6±0,6 V
Mäuse [3]; 35 mg/kg chronic, 12 days + Natriumäthaminal 100 mg/kg i.p.
  Schlafdauer: 390,0±37 min
Mäuse [3]; 35 mg/kg single + Natriumäthaminal 100 mg/kg i.p.
  Schlafdauer: 274,3±32 min
Mäuse [4]; 16 mg/kg i.p.
  Latenzperiode: 36,4±6,8 sec
Ratten [5]; 35 mg/kg chronic, 16 days
  Rektaltemperatur nach I Stunde an der Kälte: 23,2±0,2
  Rektaltemperatur nach I Stunde: 30,4±0,3
Ratten [6]; 35 mg/kg chronic, 10 days once daily
  Überlebensdauer: 876,6±90 sec
Ratten [6]; 35 mg/kg single
  Überlebensdauer: 1359,0±100 sec
Mäuse [7]; Natriumnitroprussid 20 mg/kg s.c., 35 mg/kg chronic, 10 days once daily
  Überlebensdauer: 515,6±34 sec
Mäuse [8]; 16 mg/kg i.p.
  Anzahl der Impulse im Aktometer: 368±51
Mäuse [8]; 32 mg/kg i.p.
  Anzahl der Impulse im Aktometer: 238±28
Mäuse [8]; 40 mg/kg i.p.
  Anzahl der Impulse im Aktometer: 158±21
Ratten [9]; [11]
  Schlafdauer: 290,0±17 min
Ratten [9]; [12]
  Schlafdauer: 288,6±27 min
Mäuse [10]; 100 mg/kg
  Spannung in V, Schwelle der emotionellen Reaktivität: 24,2±0,8 V

## γ -Amino- β -phenylbuttersäureorotat [Erfindungsgemässe Verbindung]
Mäuse [1]; 50 mg/kg single
  Schwimmzeit: 57,6±5,6 min
Mäuse [1]; after 20 days chronic administration, Tabelle I9, compared with γ-Amino-β-phenylbuttersäurehydrochlorid as worded
  Schwimmdauer grösser um das ...fache bei einer Temperatur von 40°C: 2,5 fache
Ratten [2]; 20,0 mg/kg
  Spannung in V, die Schwelle der emotionnellen Reaktivität: 23,4±0,8 V
Ratten [2]; 40,0 mg/kg
  Spannung in V, die Schwelle der emotionnellen Reaktivität: 27,6±0,4 V
Ratten [2]; 60,0 mg/kg
  Spannung in V, die Schwelle der Aggressivität: 44,8±0,6 V
Ratten [2]; 150,0 mg/kg
  Spannung in V, die Schwelle der emotionnellen Reaktivität: 34,2±2,2 V
Mäuse [3]; 50 mg/kg chronic, 12 days + Natriumäthaminal 100 mg/kg i.p.
  Schlafdauer: 178,4±14 min
Mäuse [3]; [12]
  Schlafdauer: 261,3±21 min
Mäuse [4]; 25 mg/kg i.p.
  Anzahl der Wassereinnahmen für 3 Minuten: 5,6±0,7
  Latenzperiode: 52,4±20 sec
Ratten [5]; 50 mg/kg chronic, 16 days
  Rektaltemperatur vor der Einführung der Verbindung: 30,7±0,2
  Rektaltemperatur nach I Stunde an der Kälte: 27,0±0,3
Ratten [5]; 50 mg/kg single
  Rektaltemperatur vor der Einführung der Verbindung: 30,4±0,3
  Rektaltemperatur nach I Stunde: 30,9±0,3
Ratten [6]; 50 mg/kg chronic, 10 days once daily
  Überlebensdauer: 1133,0±54 sec
Ratten [6]; 50 mg/kg single
  Überlebensdauer: 1247,0±94 sec
Mäuse [7]; Natriumnitroprussid 20 mg/kg s.c. 60 min after compound, 50 mg/kg single
  Überlebensdauer: 740,3±68 sec
Mäuse [7]; Natriumnitroprussid 20 mg/kg s.c., 50 mg/kg chronic, 10 days once daily
  Überlebensdauer: 1083,7±80 sec
Mäuse [8]; 25 mg/kg i.p.
  Anzahl der Impulse im Aktometer: 322±43
Mäuse [8]; 50 mg/kg i.p.
  Anzahl der Impulse im Aktometer: 208±27
Mäuse [8]; 75 mg/kg i.p.
  Anzahl der Impulse im Aktometer: 123±18
Ratten [9]; 25 mg/kg single + Natriumäthaminal 100 mg/kg i.p.
  Schlafdauer: 314,8±22 min
Ratten [9]; [11]
  Schlafdauer: 167,4±23 min
Ratten [9]; [12]
  Schlafdauer: 306,4±16 min
Mäuse [10]; 37 mg/kg
  Spannung in V, Schwelle der Agressivität: 29,8±2,4 V
